Data set [1] relates to Mus musculus. Description: In-vivo hypoglycemic activity in alloxan-pretreated diabetic BALB/c mouse assessed as blood glucose level after 2 hrs by glucometer analysis (reference value: 239.0 to 444.4 mg/dl). Type of data set: functional.
Data set [2] concerns Mus musculus. Kind of data set: In-vivo hypoglycemic activity in alloxan-pretreated diabetic BALB/c mouse assessed as blood glucose level after 4 hrs by glucometer analysis (reference value: 239.0 to 444.4 mg/dl). Type of data set: functional.
Data set [3] has as its system Mus musculus. Description: In-vivo hypoglycemic activity in alloxan-pretreated diabetic BALB/c mouse assessed as blood glucose level after 6 hrs by glucometer analysis (reference value: 239.0 to 444.4 mg/dl). It is filed as functional.
Data set [4] deals with Mus musculus. Description: In-vivo hypoglycemic activity in alloxan-pretreated diabetic BALB/c mouse assessed as blood glucose level after 8 hrs by glucometer analysis (reference value: 239.0 to 444.4 mg/dl). Type of data set: functional.
Data set [5] relates to Mus musculus. Description: In-vivo hypoglycemic activity in alloxan-pretreated diabetic BALB/c mouse assessed as decrease in blood glucose level after 8 hrs by glucometer analysis. It is filed as functional.
In data set [6] the target is Aldo-keto reductase family 1 member A1 (Bos taurus, UniProt Q3ZCJ2). Description: Inhibition of ALR1 in calf kidney using sodium D-glucoronate as substrate treated with compound for 10 mins prior to substrate addition by UV spectrophotometer analysis.
Data set [7] addresses Aldo-keto reductase family 1 member B1 (Bos taurus, UniProt P16116). Description: Inhibition of ALR2 in calf lenses using DL-glyceraldehyde as substrate treated with compound for 10 mins prior to substrate addition by UV spectrophotometer analysis. Details: species or system Lens of camera-type eye.
The species named for the next data set is Bos taurus. Description: Selectivity index, ratio of IC50 for ALR1 in calf kidney to IC50 for ALR2 in calf lenses. Particulars: Lens of camera-type eye. Type of data set: tissue-based.
A short description of data set [8]: Retardation factor of the compound using petroleum ether/ethylacetate (6:4) as solvent system by TLC. It is filed as physicochemical.
Data set [9] has as its system Mus musculus. Kind of data set: In-vivo hypoglycemic activity in alloxan-pretreated diabetic BALB/c mouse assessed as blood glucose level at 10 mg/kg after 2 hrs by glucometer analysis (reference value: 385.2 +/- 8.94 mg/dl). Type of data set: functional.
Data set [10] concerns Mus musculus. Kind of data set: In-vivo hypoglycemic activity in alloxan-pretreated diabetic BALB/c mouse assessed as blood glucose level at 10 mg/kg after 4 hrs by glucometer analysis (reference value: 385.2 +/- 8.94 mg/dl). Type of data set: functional.
Data set [11] relates to Mus musculus. Kind of data set: In-vivo hypoglycemic activity in alloxan-pretreated diabetic BALB/c mouse assessed as blood glucose level at 10 mg/kg after 6 hrs by glucometer analysis (reference value: 385.2 +/- 8.94 mg/dl). It is filed as functional.
Data set [12] concerns Mus musculus. Kind of data set: In-vivo hypoglycemic activity in alloxan-pretreated diabetic BALB/c mouse assessed as blood glucose level at 10 mg/kg after 8 hrs by glucometer analysis (reference value: 385.2 +/- 8.94 mg/dl). It is filed as functional.
Data set [13] has as its system Mus musculus. Kind of data set: In-vivo hypoglycemic activity in alloxan-pretreated diabetic BALB/c mouse assessed as blood glucose level at 10 mg/kg after 8 hrs by glucometer analysis. Type of data set: functional.
Data set [14] concerns aldehyde reductase (ALR1), Bos taurus. Kind of data set: Inhibition of ALR1 in calf kidney using sodium D-glucoronate as substrate at 0.6 mM treated with compound for 10 mins prior to substrate addition by UV spectrophotometer analysis.
In data set [15] the target is Aldo-keto reductase family 1 member B1 (Bos taurus) (UniProt P16116). Description: Inhibition of ALR2 in calf lenses using DL-glyceraldehyde as substrate at 0.6 mM treated with compound for 10 mins prior to substrate addition by UV spectrophotometer analysis. Particulars: Lens of camera-type eye.
The target is the same in data set [16]. Description: Uncompetitive inhibition of ALR2 in calf lenses using DL-glyceraldehyde as substrate at 20 uM by Lineweaver-Burk plot analysis. Particulars: Lens of camera-type eye.

Molecules are shown by their SMILES. Active and inactive are the calls of the source. The rule behind the calls is not given here.

Consider 15 compounds from ChEMBL document CHEMBL3425483, “Synthesis, characterization, hypoglycemic and aldose reductase inhibition activity of arylsulfonylspiro[fluorene-9,5'-imidazolidine]-2',4'-diones” (Eur J Med Chem, 2015).

Aldo-keto reductase family 1 member A1, sequence (Q3ZCJ2 2-325 limits assumed): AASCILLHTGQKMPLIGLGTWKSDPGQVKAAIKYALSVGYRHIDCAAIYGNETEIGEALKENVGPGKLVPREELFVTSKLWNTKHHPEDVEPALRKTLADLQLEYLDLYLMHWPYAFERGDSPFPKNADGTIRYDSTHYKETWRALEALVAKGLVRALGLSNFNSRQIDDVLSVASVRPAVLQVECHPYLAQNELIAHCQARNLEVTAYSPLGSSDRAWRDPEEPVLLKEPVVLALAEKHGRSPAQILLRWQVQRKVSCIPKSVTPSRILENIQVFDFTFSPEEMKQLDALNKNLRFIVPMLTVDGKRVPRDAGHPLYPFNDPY

For `O=C1NC2(C(=O)N1S(=O)(=O)c1ccc([N+](=O)[O-])cc1)c1ccccc1-c1ccccc12`, the Activity in the data set on Mus musculus [1] came to 226.6 mg/dL; in the data set on Mus musculus [2], 190.4 mg/dL; in the data set on Mus musculus [3], 175.2 mg/dL; with Mus musculus [4] it was 121.8 mg/dL. Further, the “inhibition (INH)” value in the data set with Mus musculus [5] came out at 55.25%. In addition, the IC50 (in general, the concentration needed to halve the response being measured) in data set [6] turned out to be 3.51 µM; in data set [7], 1.8 µM. Further, the Ratio IC50 in the data set filed under Bos taurus was found to be 1.95. This compound also had a Rf in data set [8] of 0.35.
As for `O=C1NC(=O)C2(c3ccccc3-c3ccccc32)N1S(=O)(=O)c1ccc(Cl)cc1`, the Activity with Mus musculus [1] was determined as 259.8 mg/dL; with Mus musculus [2], 289 mg/dL; with Mus musculus [3], 323.4 mg/dL; in the data set with Mus musculus [4], 355 mg/dL. The concentration for half-maximal inhibition (IC50) in [6] is 12.1 µM; in data set [7], 1.72 µM. Besides, the Ratio IC50 in the data set listed under Bos taurus stood at 9.68. The compound further displayed a Rf in data set [8] of 0.2.
As for `Cc1ccc(S(=O)(=O)N2C(=O)NC3(C2=O)c2ccccc2-c2ccccc23)cc1`, the Activity with Mus musculus [1] came out at 229.3 mg/dL; in the data set on Mus musculus [2], 180 mg/dL; with Mus musculus [3], 146.6 mg/dL; with Mus musculus [4] it was 123.6 mg/dL. The “inhibition (INH)” value in the data set on Mus musculus [5] is reported as 48.28%. Besides, the values for the IC50 in data set [6] and in data set [7] were 5.15 µM and 2.84 µM, respectively. Besides, in the data set listed under Bos taurus, the Ratio IC50 came to 1.81. For the same compound, the Rf in data set [8] is recorded as 0.27.
`COc1ccc(Cl)cc1C(=O)NCCc1ccc(S(=O)(=O)NC(=O)NC2CCCCC2)cc1` [GLYBURIDE]: the Activity in the data set on Mus musculus [9] was determined as 289.1 mg/dL; with Mus musculus [10], 229.3 mg/dL; in the data set on Mus musculus [11], 170.7 mg/dL; in the data set with Mus musculus [12], 150.5 mg/dL. The inhibition in vivo (usually the drop in the measured response relative to a control, in per cent) at 10 mg/kg with Mus musculus [13] came out at 60.9%.
Take `COc1ccc(S(=O)(=O)N2C(=O)NC3(C2=O)c2ccccc2-c2ccccc23)cc1`: the Activity in the data set with Mus musculus [1] was determined as 380.2 mg/dL; in the data set on Mus musculus [2] it was 376 mg/dL; with Mus musculus [3], 402.8 mg/dL; in the data set on Mus musculus [4] it was 418.8 mg/dL. In addition, the IC50 in [6] turned out to be 26.1 µM; in data set [7], 1.02 µM. Also, the Ratio IC50 in the data set filed under Bos taurus turned out to be 25.6. The same compound showed a Rf in data set [8] of 0.42.
Regarding `O=C1c2ccccc2C(=O)c2cc(S(=O)(=O)N3C(=O)NC4(C3=O)c3ccccc3-c3ccccc34)ccc21`, the Activity came out at 305.8 mg/dL in the data set with Mus musculus [1], 336.4 mg/dL in the data set on Mus musculus [2], 400.4 mg/dL in the data set with Mus musculus [3] and 442.6 mg/dL in the data set on Mus musculus [4]. The IC50 in [7] is 11.3 µM. The Ratio IC50 in the data set filed under Bos taurus came out at 2.41. The Rf in data set [8] came out at 0.47. In addition, in data set [14], the inhibition (as a rule, the percentage by which the read-out fell short of the control) was 44.9%.
For `O=C1NC2(C(=O)N1S(=O)(=O)c1ccc3ccccc3c1)c1ccccc1-c1ccccc12`, the Activity with Mus musculus [1] stood at 277 mg/dL; with Mus musculus [2] it was 206 mg/dL; with Mus musculus [3], 123 mg/dL; in the data set with Mus musculus [4], 108.6 mg/dL. Moreover, the “inhibition (INH)” value in the data set with Mus musculus [5] stood at 66.44%. Moreover, the inhibition in data set [15] was found to be 52%; in data set [14] it was 47.9%. In addition, the Rf in [8] turned out to be 0.44.
In the case of `O=C1NC(=O)C2(c3ccccc3-c3ccccc32)N1S(=O)(=O)c1ccc([N+](=O)[O-])cc1`, the Activity was determined as 226.6 mg/dL in the data set with Mus musculus [1], 189.4 mg/dL in the data set with Mus musculus [2], 176.8 mg/dL in the data set with Mus musculus [3] and 138.2 mg/dL in the data set with Mus musculus [4]. Moreover, the “inhibition (INH)” value in the data set with Mus musculus [5] stood at 62.86%. Besides, the IC50 in [6] was 12.3 µM; in [7] it was 7.88 µM. Besides, the Rf in data set [8] turned out to be 0.31.
Regarding `O=C1NC2(C(=O)N1S(=O)(=O)c1ccc(Cl)cc1)c1ccccc1-c1ccccc12`, the Activity was determined as 232 mg/dL in the data set with Mus musculus [1], 160.4 mg/dL with Mus musculus [2], 78.8 mg/dL in the data set with Mus musculus [3] and 68 mg/dL in the data set on Mus musculus [4]. In the data set on Mus musculus [5], the “inhibition (INH)” value is on record as 72.24%. The IC50 in data set [7] stood at 0.89 µM. The Ratio IC50 in the data set filed under Bos taurus turned out to be 53.8. For the same compound, the inhibition result in [16] was “Active”. The same compound showed a Rf in [8] of 0.31. In addition, the inhibition in data set [14] is 47.9%.
As for `COc1ccc(S(=O)(=O)N2C(=O)NC(=O)C23c2ccccc2-c2ccccc23)cc1`, the Activity is 275.6 mg/dL in the data set on Mus musculus [1], 205.6 mg/dL with Mus musculus [2], 143.6 mg/dL in the data set on Mus musculus [3] and 129 mg/dL in the data set with Mus musculus [4]. In addition, the “inhibition (INH)” value with Mus musculus [5] is reported as 66.38%. In addition, the 50% inhibitory concentration (IC50) in [6] turned out to be 13.9 µM; in data set [7] it was 5.8 µM. Moreover, the Ratio IC50 in the data set filed under Bos taurus was found to be 2.39. The compound further showed a Rf in [8] of 0.43.
Consider `O=C1NC(=O)C2(c3ccccc3-c3ccccc32)N1S(=O)(=O)c1ccc(Br)cc1`, for which the Activity in the data set on Mus musculus [1] came out at 217 mg/dL; in the data set on Mus musculus [2] it was 168 mg/dL; in the data set with Mus musculus [3], 115.8 mg/dL; with Mus musculus [4], 72.8 mg/dL. Besides, the “inhibition (INH)” value in the data set with Mus musculus [5] was determined as 70.55%. In addition, the IC50 was 11.5 µM in [6] and 3.86 µM in data set [7]. Besides, the Ratio IC50 in the data set filed under Bos taurus was 2.97. The compound also displayed a Rf in data set [8] of 0.33.
For the compound `O=C1NC2(C(=O)N1S(=O)(=O)c1ccc(Br)cc1)c1ccccc1-c1ccccc12`, the Activity with Mus musculus [1] is 266.5 mg/dL; with Mus musculus [2] it was 297.2 mg/dL; with Mus musculus [3], 339.5 mg/dL; with Mus musculus [4], 63.5 mg/dL. For the same compound, the “inhibition (INH)” value in the data set on Mus musculus [5] is 73.72%. For the same compound, in data set [7], the IC50 came to 5.37 µM. In the data set filed under Bos taurus, the Ratio IC50 amounted to 9.68. In data set [8], this compound registered a Rf of 0.31. In data set [14], the inhibition came to 52%.
Regarding `O=C1c2ccccc2C(=O)c2cc(S(=O)(=O)N3C(=O)NC(=O)C34c3ccccc3-c3ccccc34)ccc21`, the Activity in the data set with Mus musculus [1] is 467 mg/dL; in the data set on Mus musculus [2], 500 mg/dL; in the data set on Mus musculus [3], 522.2 mg/dL; with Mus musculus [4], 544.6 mg/dL. In addition, the IC50 in data set [6] came to 20.3 µM; in data set [7], 10.3 µM. Besides, the Ratio IC50 in the data set filed under Bos taurus came out at 1.97. The compound also had a Rf in data set [8] of 0.44.
Take `O=C1NC(=O)C2(c3ccccc3-c3ccccc32)N1S(=O)(=O)c1ccc2ccccc2c1`: the Activity was 271.2 mg/dL with Mus musculus [1], 197.3 mg/dL in the data set on Mus musculus [2], 138.5 mg/dL in the data set with Mus musculus [3] and 135 mg/dL in the data set on Mus musculus [4]. Besides, the “inhibition (INH)” value in the data set with Mus musculus [5] is listed as 64.13%. Moreover, the IC50 came to 12.5 µM in [6] and 27.3 µM in data set [7]. In addition, the Ratio IC50 in the data set filed under Bos taurus is 0.45. In [8], this compound displayed a Rf of 0.41.
On to `Cc1ccc(S(=O)(=O)N2C(=O)NC(=O)C23c2ccccc2-c2ccccc23)cc1`, for which the Activity was found to be 286.2 mg/dL in the data set with Mus musculus [1], 239.4 mg/dL in the data set with Mus musculus [2], 152.2 mg/dL in the data set on Mus musculus [3] and 116.2 mg/dL in the data set with Mus musculus [4]. In addition, in the data set on Mus musculus [5], the “inhibition (INH)” value was determined as 61.67%. Besides, the IC50 came out at 8.8 µM in data set [6] and 2.29 µM in data set [7]. The Ratio IC50 in the data set filed under Bos taurus was 3.84. In [8], the Rf is 0.25.
